Data: ChEMBL document CHEMBL5726080, “Substituted piperidine compounds and their use as orexin receptor modulators” (2017)

Assay: Receptor Radioligand Binding Studies: Human Embryonic Kidney 293 cells (HEK293) stably expressing rat orexin 1 receptor (Genebank accession number NM_001525) or Chinese ovary cells (CHO) stably expressing […] were grown to confluency in DMEM (Hyclone, cat #SH30022), 10% FBS, 1×Pen/Strep, 1× sodium pyruvate, 10 mM HEPES, 600 μg/mL G418 and DMEM/F12 (Gibco, Cat #11039), 10% FBS, 1×Pen/Strep, 600 μg/mL G418 media, respectively on 150 cm2 tissue culture plates, washed with 5 mM EDTA in PBS (HyClone Dulbecco's Phosphate Buffered Saline 1× with Calcium and Magnesium, Cat #SH30264.01, hereafter referred to simply as PBS) and scraped into 50 ml tubes. After centrifugation (2K×G, 5 min at 4° C.), the supernatant was aspirated and the pellets frozen and stored at −80° C. Cells were resuspended in PBS in the presence of 1 tablet of protease inhibitor cocktail (Roche, Cat. #11836145001) per 50 mL. Each cell pellet from a 15 cm plate was resuspended in 10 mL, stored on ice, and homogenized for 45 sec prior to addition to the reactions. Competition binding experiments in 96 well polypropylene plates were performed using [3H]-(1-(5-(2-fluoro-phenyl)-2-methyl-thiazol-4-yl)-1-((S)-2-(5-phenyl-(1,3,4)oxadiazol-2-ylmethyl)-pyrrolidin-1-yl)-methanone) (Moraveck Corporation, specific activity=35.3 Ci/mmol), diluted to a 10 nM concentration in PBS (4 nM final). Compounds were solubilized in 100% DMSO (Acros Organics, Cat. #61042-1000) and tested over a range of 7 concentrations (from 0.1 nM to 10 μM). The final concentration of DMSO in the reactions is equal to or less than 0.1%. Total and nonspecific binding was determined in the absence and presence of 10 μM almorexant. The total volume of each reaction is 200 μL (20 μL of diluted compounds, 80 μL of [3H]-(1-(5-(2-fluoro-phenyl)-2-methyl-thiazol-4-yl)-1-((S)-2-(5-phenyl-(1,3,4)oxadiazol-2-ylmethyl)-pyrrolidin-1-yl)-methanone) diluted in PBS and 100 μL of the cell suspension). Reactions were run for 60 min at room temperature and terminated by filtration through GF/C filter plates (PerkinElmer, Cat. #6005174) presoaked in 0.3% polyethylenimine using the cell harvester (PerkinElmer Filtermate). The plates were washed 3 times by aspirating 30 ml PBS through the plates. Plates were dried in 55° C. oven for 60 min, scintillation fluid was added, and the radioactivity was counted on a Topcount (Packard).

| SMILES | Ki [µM] |
| --- | --- |
| Cc1ccc(C(=O)N2CCC[C@@H](Nc3nnc(C(F)(F)F)s3)[C@@H]2C)c(-n2nccn2)n1 (relative stereo) | > 10 |
| COc1ccc(C(=O)N2CCC[C@@H](Nc3ccc(C(F)(F)F)cn3)[C@@H]2C)c(Cl)n1 (relative stereo) | > 10 |
| Cc1ccc(C(=O)N2CCC[C@@H](N(C)c3ccc(C(F)(F)F)cn3)[C@@H]2C)c(-n2nccn2)n1 (relative stereo) | > 10 |
| COc1ccc(C(=O)N2CCC[C@@H](Nc3ncc(C(F)(F)F)cn3)[C@@H]2C)c(Cl)n1 (relative stereo) | > 10 |
